Test results as given in patent US20250121087A1, “ANTIBODY-DRUG CONJUGATES COMPRISING ANTI-B7-H3 ANTIBODIES” (priority 2020, published 2025).

Test system: JIMT-1 xenograft
Test: In vivo efficacy, JIMT-1 tumor xenograft (tumor volume, body weight)
Settings: control conjugate, 5 mg/kg i.v.; BALB/c nu/nu mice
Method: T-20-AB2.1, T-23-AB2.1, T-Int-102-D1-5 AB2.1, and T-Int0112-AB2.1 were prepared with 20 mg scale reaction. After purification by HIC column, final samples were concentrated to 5-10 mg/ml protein.
In vivo efficacy of T-20-AB2.1 and T-23-AB2.1 was measured by tumor xenograft studies in mice. Female BALB/c nu/nu were injected subcutaneously in the right flank with suspensions of 5×10^6 of JIMT-1 cells respectively in PBS. Mice were randomized into study groups when tumors reached approximately 150 mm^3. T-DM1 (5 mg/kg) and T-20-AB2.1 and T-23-AB2.1 conjugates (0.3 mg/kg, QW X^4) were given i.v. All treatment groups consisted of 6 to 10 animals per group, and tumor size was monitored twice weekly using caliper measurement. The tumor mass was calculated as volume=(width×width×length)/2.

With T-DM1 the “activity in JIMT-1 xenograft versus the conjugates of the disclosure” value was “less active”.
